Laboratory results as given in patent publication US9408856B2, “Topical steroidal formulations” (Temple University—Of The Commonwealth System of Higher …, priority 2008, dated 2016).
Entries after “also recorded” stand apart in the source; their conditions may differ.

How the values were obtained:
[1] = system: dexamethasone-induced thymic and splenic atrophy; details: C3H/HeN mice; 60 mg/kg s.c. 3 days; single DEX dose 1.6 mg; Blauer et al. 1991; cited from earlier work
[2] = system: dexamethasone-induced thymic and splenic atrophy; assay: Dexamethasone-induced thymic and splenic atrophy in mice; assay type: in vivo, CD-1 mice; details: for protection against DEX-induced thymic and splenic atrophy: CD-1 mice
Procedure: Administration of dehydroepiandrosterone (DHEA, 60 mg/kg, s.c.) for three days partially reverse thymic and splenic atrophy induced by a single injection of dexamethasone (1.6 mg/mouse). In this experiment, the efficacy of either 10 mg/kg or 20 mg/kg DHEA administered s.c. versus the effect of 10 mg/kg or 20 mg/kg fluasterone was investigated.
5% Cremophor (polyethoxylated castor oil; Sigma Chemicals)-95% saline vehicle was prepared using 95 mL of sterile 0.9% NaCl (filtered through sterile 0.22 micron filter) and 5 mL of Cremophor. The Cremophor was dissolved by swirling for approximately 5 minutes.
Dexamethasone solutions were prepared by dissolving dexamethasone (Sigma Chemicals) in absolute ethanol. For example, 71.9 mg of dexamethasone was dissolved in 2.9 mL of absolute ethanol. In order to prevent precipitation, the solution was kept on a hotplate between injections.
For the 10 mg/kg suspension, 25.7 mg of DHEA was weighed out, transferred to a glass scintillation vial, and 10.3 mL of the Cremophor-saline vehicle was added. The DHEA suspension was homogenized using a Tissumizer at 80% power for 30 sec. The Tissumizer was rinsed with 70% ethanol prior to homogenization. After the 10 mg/kg DHEA suspension was homogenized the probe was rinsed 2× with 50 mL of absolute ethanol, then with 50 mL of 70% ethanol, and then dried with sterile gauze. For the 20 mg/kg DHEA suspension, 50.9 mg DHEA was suspended in 10.2 mL of Cremophor-saline vehicle.
19.4 mg of fluasterone was weighed out and transferred to a glass scintillation vial. 7.8 mL of Cremophor-saline vehicle was added to the vial and the contents of the vial were homogenized with a Tissumizer as described previously. Prior to preparing the 20 mg/kg fluasterone, the probe was rinsed 2× with 50 mL of absolute ethanol and 1× with 50 mL of 70% ethanol. For the 20 mg/kg suspension, 47.0 mg was weighed out and transferred to a glass scintillation vial. 9.4 mL of Cremophor-saline vehicle was added to the vial and the contents of the vial were homogenized with a Tissumizer as described above.
Female CD-1 mice, 43-45 days old, were obtained from Charles River Laboratories. The mice were housed 5 per cage in plastic shoebox cages with ad libitum access to Purina chow 5015 and water in the Pharmacy CAF with 12 hr of alternating light and darkness.
Prior to the experiment the mice were weighed, separated into 6 groups containing 5 mice each and treated as follows:
Mice were treated s.c. with 0.1 mL of 5% Cremophor-95% saline for three days. On the third day, the mice were also treated s.c. with 1.6 mg of dexamethasone dissolved in 0.06 mL of absolute. ethanol.
Mice were treated s.c. with 0.25 mg of DHEA suspended in 0.1 mL of 5% Cremophor-95% saline for three days. On the third day, the mice were also treated s.c. with 1.6 mg of dexamethasone dissolved in 0.06 mL of absolute ethanol.
Mice were treated s.c. with 0.5 mg of DHEA suspended in 0.1 mL of 5% Cremophor-95% saline for three days. On the third day, the mice were also treated s.c. with 1.6 mg of dexamethasone dissolved in 0.06 mL of absolute ethanol.
Mice were treated s.c. with 0.25 mg of fluasterone suspended in 0.1 mL of 5% Cremophor-95% saline for three days. On the third day, the mice were also treated s.c. with 1.6 mg of dexamethasone dissolved in 0.06 mL of absolute ethanol.
Mice were treated s.c. with 0.5 mg of fluasterone suspended in 0.1 mL of 5% Cremophor-95% saline for three days. On the third day, the mice were also treated s.c. with 1.6 mg of dexamethasone dissolved in 0.06 mL of absolute ethanol.
All s.c. injections were made in the nape. All mice were lightly anesthetized while the s.c. injections were done.
Twenty-four hours after dexamethasone treatment, the mice were euthanized by an overdose of isoflurane. The spleen and thymus were removed, cleaned of any adventitia, rinsed, blotted on filter paper, and weighed. […]

[3] = Table 12, 10 mg/kg s.c. 3 days + dexamethasone 1.6 mg s.c. on day 3, 24 h after dexamethasone
[4] = Table 12, 20 mg/kg s.c. 3 days + dexamethasone 1.6 mg s.c. on day 3, 24 h after dexamethasone
[5] = Table 14, micronized steroid 20 mg/kg + dexamethasone
[6] = Table 14, micronized steroid 60 mg/kg + dexamethasone

C[C@]12CC[C@H](O)CC1=CC[C@@H]1[C@@H]2CC[C@]2(C)C(=O)CC[C@@H]12 [DHEA, dehydroepiandrosterone, reference compound]
effect on DEX-induced thymic and splenic atrophy [1]: significantly reduces
protection against DEX-induced thymic and splenic atrophy ([2]; 10 mg/kg): inactive
protection against DEX-induced thymic and splenic atrophy ([2]; 20 mg/kg): no apparent protection; also recorded: inactive
protection against DEX-induced thymic and splenic atrophy ([2]; 60 mg/kg): significantly protected
Body Weight [2, 3]: 23.7 ± 1.0
Spleen wt [2, 3]: 46.4 ± 3.7
Spleen wt/BW [2, 3]: 2.0 ± 0.2
Thymus wt [2, 3]: 31.7 ± 2.6
Thymus wt/BW [2, 3]: 1.3 ± 0.2
Body Weight [2, 4]: 24.5 ± 2.1
Spleen wt [2, 4]: 51.4 ± 2.2
Spleen wt/BW [2, 4]: 2.1 ± 0.2
Thymus wt [2, 4]: 36.6 ± 5.2
Thymus wt/BW [2, 4]: 1.5 ± 0.2
Body Weight [2, 5]: 27.4 ± 4.0
Spleen wt [2, 5]: 56.8 ± 8.1
Spleen wt/BW [2, 5]: 2.1 ± 0.1
Thymus wt [2, 5]: 39.3 ± 4.1
Thymus wt/BW [2, 5]: 1.4 ± 0.1
Body Weight [2, 6]: 27.0 ± 3.1
Spleen wt [2, 6]: 79.9 ± 16.0
Spleen wt/BW [2, 6]: 3.0 ± 0.4
Thymus wt [2, 6]: 63.2 ± 7.8
Thymus wt/BW [2, 6]: 2.3 ± 0.2
Approximate Potency Compared to Fluasterone in Protecting Against DEX-induced Thymic and Splenic Involution ([2]; fluasterone = 1, mice): about ⅙
